Each block holds one molecule with its values, some of them ahead of it. The source made the active and inactive calls. The calls are words filed in the database; no cut-off is given here.
How the values were obtained:
Histamine H3 receptor [1] = target: T1, Histamine H3 receptor (Homo sapiens, UniProt Q9Y5N1); assay: Displacement of [3H]NAMH from human H3R expressed in CHO cells; format: cell-based
Target sequence in this assay (Q9Y5N1 whole entry): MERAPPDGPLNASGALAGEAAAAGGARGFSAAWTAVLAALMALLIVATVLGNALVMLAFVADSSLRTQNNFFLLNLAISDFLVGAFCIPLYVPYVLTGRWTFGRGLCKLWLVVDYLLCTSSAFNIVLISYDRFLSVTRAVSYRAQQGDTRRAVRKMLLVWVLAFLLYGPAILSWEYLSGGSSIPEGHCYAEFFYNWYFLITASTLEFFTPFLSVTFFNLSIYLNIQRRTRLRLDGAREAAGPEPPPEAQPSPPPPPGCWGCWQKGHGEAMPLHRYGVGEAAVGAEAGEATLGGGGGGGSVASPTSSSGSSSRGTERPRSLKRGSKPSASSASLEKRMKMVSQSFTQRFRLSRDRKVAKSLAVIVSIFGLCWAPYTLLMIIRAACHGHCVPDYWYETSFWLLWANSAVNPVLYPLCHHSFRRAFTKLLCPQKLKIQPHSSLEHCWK

Histamine H3 receptor [2] = target: Histamine H3 receptor (Rattus norvegicus, UniProt Q9QYN8); assay: Displacement of [3H]NAMH from rat H3R expressed in CHO cells; format: cell-based
[3] = Oral bioavailability in rat at 5 mg/kg; format: ADME, organism-based; conditions: in vivo
Histamine H3 receptor [4] = target: T1, Histamine H3 receptor; assay: Antagonist activity at human H3R expressed in CHO cells assessed as inhibition of R-alpha-methylhistamine-induced [35S]GTPgammaS binding
Target sequence in this assay (Q9Y5N1 whole entry, looked up): as the sequence (Q9Y5N1 whole entry) above

Rattus norvegicus [5] = assay: Inhibition of R-alpha-methylhistamine-induced water intake in ip dosed rat dipsogenia model; format: functional
Rattus norvegicus [6] = assay: Toxicity in Sprague-Dawley rat EEG/EMG model assessed as EEG abnormality at 3 to 30 mg/kg, ip; format: organism-based; set-up: dose 3-30 mg/kg, route intraperitoneal; conditions: in vivo
[7] = target: Histamine H2 receptor (Homo sapiens) (UniProt P25021); assay: Inhibition of human H2R at 10 uM
[8] = target: Histamine H1 receptor (Homo sapiens) (UniProt P35367); assay: Inhibition of human H1R at 10 uM
Rattus norvegicus [9] = assay: Wake promoting activity in Sprague-Dawley rat EEG/EMG model assessed as sleep rebound at 3 to 30 mg/kg, ip; format: functional, organism-based
Cytochrome P450 3A4 = Cytochrome P450 3A4 (Homo sapiens, UniProt P08684); assay: Inhibition of CYP3A4; format: ADME
[10] = Ratio of drug level from brain to plasma of rat at 10 mg/kg, ip after 1 hr; format: ADME, organism-based; set-up: dose 10 mg/kg, route intraperitoneal; conditions: read-out: BPR
[11] = target: Histamine H4 receptor (Homo sapiens) (UniProt Q9H3N8); assay: Inhibition of human H4R at 10 uM
[12] = Clearance in rat at 1 mg/kg, iv; format: ADME, organism-based; set-up: dose 1 mg/kg, route intravenous; conditions: in vivo
Cytochrome P450 1A2 = target: T2, Cytochrome P450 1A2 (Homo sapiens, UniProt P05177); assay: Inhibition of CYP1A2; format: ADME
T2 sequence (P05177 whole entry): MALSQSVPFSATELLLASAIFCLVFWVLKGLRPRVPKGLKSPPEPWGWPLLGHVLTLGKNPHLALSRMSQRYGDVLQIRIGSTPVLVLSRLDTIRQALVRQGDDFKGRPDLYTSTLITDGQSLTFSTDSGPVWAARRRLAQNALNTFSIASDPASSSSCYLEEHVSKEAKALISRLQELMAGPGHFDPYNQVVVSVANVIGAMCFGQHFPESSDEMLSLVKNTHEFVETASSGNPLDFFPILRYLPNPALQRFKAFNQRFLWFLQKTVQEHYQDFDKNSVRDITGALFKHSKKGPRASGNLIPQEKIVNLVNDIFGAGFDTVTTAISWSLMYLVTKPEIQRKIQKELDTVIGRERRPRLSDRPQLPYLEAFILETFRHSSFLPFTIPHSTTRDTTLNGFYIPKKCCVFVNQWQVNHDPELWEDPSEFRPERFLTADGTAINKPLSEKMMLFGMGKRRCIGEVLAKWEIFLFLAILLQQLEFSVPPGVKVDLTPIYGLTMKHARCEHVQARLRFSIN

Rattus norvegicus [13] = assay: Wake promoting activity in Sprague-Dawley rat EEG/EMG model assessed as cumulative wake time at 30 mg/kg, ip after 7 hrs; format: functional; conditions: route intraperitoneal
Cytochrome P450 2C9 = Cytochrome P450 2C9 (Homo sapiens, UniProt P11712); assay: Inhibition of CYP2C9; format: ADME
[14] = Metabolic stability in rat liver microsomes assessed as half life; format: ADME, Microsome
[15] = Cmax in rat at 5 mg/kg, po; format: ADME, organism-based; set-up: dose 5 mg/kg, route oral; conditions: in vivo
Rattus norvegicus [16] = assay: Wake promoting activity in Sprague-Dawley rat EEG/EMG model assessed as increase in cumulative wake time at 30 mg/kg, ip up to 4.5 hrs; format: functional, organism-based; set-up: dose 30 mg/kg
[17] = AUC (0 to infinity) in rat at 1 mg/kg, iv; format: ADME, organism-based; set-up: time infinity, dose 1 mg/kg, route intravenous; conditions: plasma
Rattus norvegicus [18] = assay: Wake promoting activity in Sprague-Dawley rat EEG/EMG model assessed as increase in cumulative wake time at 30 mg/kg, ip up to 4 hrs; format: functional; conditions: route intraperitoneal
[19] = Half life in rat at 1 mg/kg, iv; format: ADME, organism-based; set-up: dose 1 mg/kg, route intravenous; conditions: in vivo
[20] = Metabolic stability in dog liver microsomes assessed as half life; format: ADME, Canis lupus familiaris, Microsome
[21] = Volume of distribution in rat at 1 mg/kg, iv; format: ADME, organism-based; set-up: dose 1 mg/kg, route intravenous; conditions: in vivo
Rattus norvegicus [22] = assay: Wake promoting activity in Sprague-Dawley rat EEG/EMG model assessed as cumulative wake time at 30 mg/kg, ip; format: functional; conditions: route intraperitoneal
[23] = Metabolic stability in mouse liver microsomes assessed as half life; format: ADME, Microsome
Rattus norvegicus [24] = assay: Wake promoting activity in Sprague-Dawley rat EEG/EMG model assessed as increase in cumulative wake time at 30 mg/kg, ip relative to vehicle treated animals; format: functional; conditions: route intraperitoneal
Cytochrome P450 2C19 = Cytochrome P450 2C19 (Homo sapiens, UniProt P33261); assay: Inhibition of CYP2C19; format: ADME
Histamine H3 receptor [25] = target: T1, Histamine H3 receptor; assay: Antagonist activity at human H3R expressed in CHO cells assessed as inhibition of R-alpha-methylhistamine-induced [35S]GTPgammaS binding; format: functional, cell-based
Target sequence in this assay (Q9Y5N1 whole entry): as the sequence (Q9Y5N1 whole entry) above

[26] = AUC (0 to infinity) in rat at 5 mg/kg, po; format: ADME, organism-based; set-up: time infinity, dose 5 mg/kg, route oral; conditions: plasma
Histamine H3 receptor [27] = target: T1, Histamine H3 receptor; assay: Inverse agonist activity at human H3R expressed in CHO cells assessed as inhibition of R-alpha-methylhistamine-induced [35S]GTPgammaS binding; format: functional, cell-based
Target sequence in this assay (Q9Y5N1 whole entry): as the sequence (Q9Y5N1 whole entry) above

Rattus norvegicus [28] = assay: Wake promoting activity in ip dosed Sprague-Dawley rat EEG/EMG model assessed as cumulative wake time; format: functional, organism-based
[29] = Metabolic stability in human liver microsomes assessed as half life; format: ADME, Microsome
Cytochrome P450 2D6 = Cytochrome P450 2D6 (Homo sapiens, UniProt P10635); assay: Inhibition of CYP2D6; format: ADME
Rattus norvegicus [30] = assay: Wake promoting activity in Sprague-Dawley rat EEG/EMG model assessed as cumulative wake time at 10 mg/kg, ip; format: functional; conditions: route intraperitoneal
Rattus norvegicus [31] = assay: Wake promoting activity in Sprague-Dawley rat EEG/EMG model assessed as increase in cumulative wake time at 30 mg/kg, ip up to 7.5 hrs; format: functional, organism-based; set-up: dose 30 mg/kg
Rattus norvegicus [32] = assay: Wake promoting activity in Sprague-Dawley rat EEG/EMG model assessed as sleep rebound at 3 to 30 mg/kg, ip up to 22 hrs; format: functional, organism-based
[33] = Aqueous solubility of the compound at pH 2; format: physicochemical; conditions: buffer
[34] = Aqueous solubility of the compound at pH 7.4; format: physicochemical; conditions: buffer

Histamine H3 receptor (Rattus norvegicus, UniProt Q9QYN8), sequence (Q9QYN8 whole entry): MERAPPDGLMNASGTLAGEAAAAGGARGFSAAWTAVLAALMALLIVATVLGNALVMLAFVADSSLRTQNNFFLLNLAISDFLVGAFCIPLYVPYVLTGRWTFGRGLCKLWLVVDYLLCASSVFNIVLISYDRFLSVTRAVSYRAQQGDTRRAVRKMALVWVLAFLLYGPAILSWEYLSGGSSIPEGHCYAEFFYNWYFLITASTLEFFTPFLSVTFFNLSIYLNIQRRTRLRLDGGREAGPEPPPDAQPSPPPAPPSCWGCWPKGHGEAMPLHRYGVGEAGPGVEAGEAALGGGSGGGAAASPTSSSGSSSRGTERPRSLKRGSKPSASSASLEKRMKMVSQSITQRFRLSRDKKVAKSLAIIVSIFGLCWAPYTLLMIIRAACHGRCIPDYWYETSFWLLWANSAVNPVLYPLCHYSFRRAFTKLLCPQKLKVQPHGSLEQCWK
Cytochrome P450 2D6, sequence (P10635 whole entry): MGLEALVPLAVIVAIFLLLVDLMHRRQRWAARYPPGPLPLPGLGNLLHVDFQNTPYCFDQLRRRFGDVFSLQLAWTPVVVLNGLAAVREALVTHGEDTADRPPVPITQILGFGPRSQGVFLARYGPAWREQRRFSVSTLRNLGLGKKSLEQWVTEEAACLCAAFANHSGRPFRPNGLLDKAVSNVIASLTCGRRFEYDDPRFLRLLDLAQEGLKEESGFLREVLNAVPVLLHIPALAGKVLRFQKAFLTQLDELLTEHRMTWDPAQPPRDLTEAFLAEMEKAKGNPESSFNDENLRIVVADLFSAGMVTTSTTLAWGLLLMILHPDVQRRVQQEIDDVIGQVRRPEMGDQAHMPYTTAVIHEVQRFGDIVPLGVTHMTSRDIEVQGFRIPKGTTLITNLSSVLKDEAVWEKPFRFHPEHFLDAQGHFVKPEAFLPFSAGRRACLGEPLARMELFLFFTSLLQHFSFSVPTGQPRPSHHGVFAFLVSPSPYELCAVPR
Histamine H2 receptor (Homo sapiens), sequence (P25021 whole entry): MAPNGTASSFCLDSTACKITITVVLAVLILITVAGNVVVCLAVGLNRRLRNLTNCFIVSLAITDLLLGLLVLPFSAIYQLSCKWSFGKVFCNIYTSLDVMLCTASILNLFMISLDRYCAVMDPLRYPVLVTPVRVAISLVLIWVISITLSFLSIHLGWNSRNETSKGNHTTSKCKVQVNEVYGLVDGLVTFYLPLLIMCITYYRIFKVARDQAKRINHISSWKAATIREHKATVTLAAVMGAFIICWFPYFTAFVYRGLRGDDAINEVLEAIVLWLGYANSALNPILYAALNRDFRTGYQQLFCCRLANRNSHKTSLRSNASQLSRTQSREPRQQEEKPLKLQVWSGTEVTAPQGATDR
Cytochrome P450 2C19, sequence (P33261 whole entry): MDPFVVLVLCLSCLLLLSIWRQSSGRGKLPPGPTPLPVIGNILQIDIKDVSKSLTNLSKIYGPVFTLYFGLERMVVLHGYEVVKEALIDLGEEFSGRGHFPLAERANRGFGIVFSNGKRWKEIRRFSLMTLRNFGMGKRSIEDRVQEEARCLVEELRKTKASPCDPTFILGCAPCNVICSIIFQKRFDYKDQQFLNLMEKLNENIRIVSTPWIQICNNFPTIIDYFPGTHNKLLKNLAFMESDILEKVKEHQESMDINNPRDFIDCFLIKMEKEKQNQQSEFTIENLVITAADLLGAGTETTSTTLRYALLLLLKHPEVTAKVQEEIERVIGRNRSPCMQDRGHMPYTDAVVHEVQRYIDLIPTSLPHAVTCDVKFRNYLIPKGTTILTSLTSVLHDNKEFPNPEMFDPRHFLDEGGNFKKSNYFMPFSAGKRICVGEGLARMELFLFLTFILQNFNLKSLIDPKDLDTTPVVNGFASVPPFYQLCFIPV
Cytochrome P450 3A4, sequence (P08684 whole entry): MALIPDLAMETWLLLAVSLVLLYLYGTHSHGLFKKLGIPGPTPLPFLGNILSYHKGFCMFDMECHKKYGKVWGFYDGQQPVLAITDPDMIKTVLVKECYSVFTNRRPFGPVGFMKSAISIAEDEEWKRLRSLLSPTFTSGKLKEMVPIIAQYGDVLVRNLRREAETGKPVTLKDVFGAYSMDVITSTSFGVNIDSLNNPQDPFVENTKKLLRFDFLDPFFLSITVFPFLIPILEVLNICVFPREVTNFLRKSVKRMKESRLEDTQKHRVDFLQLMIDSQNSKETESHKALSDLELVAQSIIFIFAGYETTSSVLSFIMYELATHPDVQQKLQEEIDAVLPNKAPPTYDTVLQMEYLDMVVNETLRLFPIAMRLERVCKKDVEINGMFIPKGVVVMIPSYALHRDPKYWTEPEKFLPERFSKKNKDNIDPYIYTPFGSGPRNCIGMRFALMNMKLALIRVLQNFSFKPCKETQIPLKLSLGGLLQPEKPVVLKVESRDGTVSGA
Cytochrome P450 2C9, sequence (P11712 whole entry): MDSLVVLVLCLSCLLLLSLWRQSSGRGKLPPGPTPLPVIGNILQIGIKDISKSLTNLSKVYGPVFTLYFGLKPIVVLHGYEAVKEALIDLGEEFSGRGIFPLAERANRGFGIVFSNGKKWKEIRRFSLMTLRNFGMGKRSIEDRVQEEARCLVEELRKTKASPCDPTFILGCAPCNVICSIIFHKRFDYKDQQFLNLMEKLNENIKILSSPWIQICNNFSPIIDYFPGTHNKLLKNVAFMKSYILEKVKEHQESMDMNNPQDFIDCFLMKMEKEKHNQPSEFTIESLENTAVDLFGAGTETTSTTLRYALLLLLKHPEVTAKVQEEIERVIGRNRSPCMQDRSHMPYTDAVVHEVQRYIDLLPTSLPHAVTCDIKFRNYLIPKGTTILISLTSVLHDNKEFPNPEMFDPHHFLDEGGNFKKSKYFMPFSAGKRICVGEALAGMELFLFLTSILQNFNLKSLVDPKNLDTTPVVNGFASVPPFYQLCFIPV
Histamine H1 receptor (Homo sapiens), sequence (P35367 whole entry): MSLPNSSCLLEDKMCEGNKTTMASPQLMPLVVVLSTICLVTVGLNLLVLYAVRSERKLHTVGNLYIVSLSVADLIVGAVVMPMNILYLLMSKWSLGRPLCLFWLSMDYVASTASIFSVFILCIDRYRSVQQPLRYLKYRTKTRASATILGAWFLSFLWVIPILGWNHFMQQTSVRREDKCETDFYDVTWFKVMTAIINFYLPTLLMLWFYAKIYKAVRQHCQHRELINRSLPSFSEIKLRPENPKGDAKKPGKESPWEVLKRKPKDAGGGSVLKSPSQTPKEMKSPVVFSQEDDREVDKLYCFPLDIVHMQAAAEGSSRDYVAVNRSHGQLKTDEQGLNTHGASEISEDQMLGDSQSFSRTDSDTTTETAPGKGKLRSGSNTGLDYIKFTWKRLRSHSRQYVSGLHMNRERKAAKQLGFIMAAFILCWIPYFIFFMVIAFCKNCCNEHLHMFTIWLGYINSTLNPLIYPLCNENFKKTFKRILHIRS

Ki (Histamine H3 receptor [1]): 5 nM
Ki (Histamine H3 receptor [2]): 18 nM
Structure (SMILES): C[C@@H]1CCCN1CCc1ccc(-c2ccc(=O)n(Cc3ccccc3)n2)cc1

Ki (Histamine H3 receptor [1]): 83 nM
Ki (Histamine H3 receptor [2]): 135 nM
Structure (SMILES): Cn1nc(-c2ccc(CCN3CCCC3)cc2)ccc1=O

Ki (Histamine H3 receptor [2]): 7 nM
Structure (SMILES): C[C@@H]1CCCN1CCCOc1ccc(-c2ccc(=O)[nH]n2)cc1 [IRDABISANT]

The next lines start with the molecule.

Structure (SMILES): C[C@@H]1CCCN1CCc1ccc(-c2ccc(=O)[nH]n2)cc1
Ki (Histamine H3 receptor [1]): 31 nM
Ki (Histamine H3 receptor [2]): 43 nM

Structure (SMILES): C[C@@H]1CCCN1CCc1ccc(-c2ccc(=O)n(C)n2)cc1
Ki (Histamine H3 receptor [1]): 7 nM
bioavailability [3]: < 1%
Activity (Histamine H3 receptor [4]): Active
ED50 (Rattus norvegicus [5]): 0.07 mg/kg
inhibition (Rattus norvegicus [5]): Dose-dependent effect
Ki (Histamine H3 receptor [2]): 58 nM
Activity (Rattus norvegicus [6]): Non-toxic
inhibition [7]: < 30%
inhibition [8]: < 30%
Activity (Rattus norvegicus [9]): inactive
IC50 (Cytochrome P450 3A4): > 30000 nM
Kp at 1 h [10]: 6
inhibition [11]: < 30%
clearance [12]: 12 mL/min/kg
IC50 (Cytochrome P450 1A2): > 30000 nM
Time (Rattus norvegicus [13]): 200 min
IC50 (Cytochrome P450 2C9): > 30000 nM
half-life [14]: 39 min
Cmax [15]: 18 ng/mL
Activity (Rattus norvegicus [16]): Active
AUC(0-inf) [17]: 1650 ng·h/mL
Activity (Rattus norvegicus [18]): 98%
half-life [19]: 30 min
half-life [20]: > 40 min
Vd [21]: 0.6 L/kg
Time (Rattus norvegicus [22]): 235 min
half-life [23]: 25 min
Activity (Rattus norvegicus [24]): 68%
IC50 (Cytochrome P450 2C19): > 30000 nM
Activity (Histamine H3 receptor [25]): Active
AUC(0-inf) [26]: 28 ng·h/mL
EC50 (Histamine H3 receptor [27]): 2 nM
Time (Rattus norvegicus [28]): Dose-dependent effect
half-life [29]: > 40 min
IC50 (Cytochrome P450 2D6): > 30000 nM
Time (Rattus norvegicus [30]): 161 min

Structure (SMILES): C[C@@H]1CCCN1CCc1ccc(-c2ccc(=O)n(-c3ccccc3)n2)cc1
Ki (Histamine H3 receptor [1]): 34 nM
Ki (Histamine H3 receptor [2]): 42 nM

Structure (SMILES): C[C@@H]1CCCN1CCc1ccc(-c2ccc(=O)n(-c3ccccn3)n2)cc1
Ki (Histamine H3 receptor [1]): 47 nM
Ki (Histamine H3 receptor [2]): 242 nM

Structure (SMILES): C[C@@H]1CCCN1CCc1ccc(-c2ccc(=O)n(-c3ccc(Cl)cc3)n2)cc1
Ki (Histamine H3 receptor [1]): 8 nM
Ki (Histamine H3 receptor [2]): 26 nM

Structure (SMILES): C[C@@H]1CCCN1CCc1ccc(-c2ccc(=O)n(-c3ccc(F)cc3)n2)cc1
Ki (Histamine H3 receptor [1]): 13 nM
bioavailability [3]: 27%
Activity (Histamine H3 receptor [4]): Active
ED50 (Rattus norvegicus [5]): 0.02 mg/kg
inhibition (Rattus norvegicus [5]): Dose-dependent effect
Ki (Histamine H3 receptor [2]): 48 nM
Activity (Rattus norvegicus [6]): Non-toxic
inhibition [7]: < 30%
inhibition [8]: < 30%
IC50 (Cytochrome P450 3A4): > 30000 nM
Activity (Rattus norvegicus [31]): Active
Kp at 1 h [10]: 11
inhibition [11]: < 30%
clearance [12]: 21 mL/min/kg
IC50 (Cytochrome P450 1A2): > 30000 nM
IC50 (Cytochrome P450 2C9): > 30000 nM
half-life [14]: > 40 min
Cmax [15]: 255 ng/mL
AUC(0-inf) [17]: 1300 ng·h/mL
Activity (Rattus norvegicus [18]): 94%
half-life [19]: 138 min
half-life [20]: > 40 min
Vd [21]: 4.8 L/kg
Activity (Rattus norvegicus [32]): inactive
half-life [23]: > 40 min
IC50 (Cytochrome P450 2C19): > 30000 nM
solubility [33]: > 125 µg/mL
Activity (Histamine H3 receptor [25]): Active
AUC(0-inf) [26]: 1730 ng·h/mL
EC50 (Histamine H3 receptor [27]): 2.1 nM
half-life [29]: > 40 min
IC50 (Cytochrome P450 2D6): > 30000 nM
solubility [34]: > 125 µg/mL
Time (Rattus norvegicus [30]): 207 min

Source: ChEMBL document CHEMBL1914283, “Synthesis and evaluation of pyridazinone-phenethylamine derivatives as selective and orally bioavailable histamine H3 receptor antagonists with robust wake-promoting activity” (Bioorg Med Chem Lett, 2011)
